Target: T1, BRD9 (Homo sapiens, UniProt Q9H8M2)
T1 sequence (Q9H8M2 1-597): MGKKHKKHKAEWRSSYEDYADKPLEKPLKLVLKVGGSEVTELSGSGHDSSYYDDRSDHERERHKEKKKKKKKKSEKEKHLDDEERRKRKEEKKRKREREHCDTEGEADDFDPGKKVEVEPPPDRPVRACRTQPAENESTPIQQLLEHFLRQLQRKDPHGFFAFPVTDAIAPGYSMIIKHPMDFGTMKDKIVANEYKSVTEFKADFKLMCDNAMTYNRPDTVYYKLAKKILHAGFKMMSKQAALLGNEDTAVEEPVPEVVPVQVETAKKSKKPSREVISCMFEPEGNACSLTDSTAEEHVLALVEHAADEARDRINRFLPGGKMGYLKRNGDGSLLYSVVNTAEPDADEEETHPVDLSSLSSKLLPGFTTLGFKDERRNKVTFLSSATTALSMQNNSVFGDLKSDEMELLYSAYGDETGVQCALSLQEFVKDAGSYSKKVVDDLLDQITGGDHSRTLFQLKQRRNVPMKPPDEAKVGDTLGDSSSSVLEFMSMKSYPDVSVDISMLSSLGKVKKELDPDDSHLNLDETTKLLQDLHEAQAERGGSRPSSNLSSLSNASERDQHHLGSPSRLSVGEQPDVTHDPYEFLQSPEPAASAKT
Assay: Degradation of BRD9 (IF), immunofluorescence in MV4-11 cells, 24 hours (Assay Protocol 2)
Type: cell-based
Design: A suspension of MV4-11 cells (ATCC CRL-9591) was prepared; host or cells: MV4-11
Conditions: BRD9 degradation; for DC50: Assay protocol 2, read-out: DC50; for Dmax: MV4-11, Assay protocol 2, read-out: Dmax
Outline: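 MV4-11 cells treated with compound 24 h at 37° C., then fixed, permeabilised and immunostained for BRD9 (anti-BRD9 E4Q3F, Alexa 647 secondary, Hoechst counterstain). High-content imaging quantified nuclear BRD9 signal; % BRD9 remaining normalised to DMSO and 100 nM CFT-8634 controls.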

| Structure (SMILES) | DC50 [nM] | Dmax [%] |
| --- | --- | --- |
| COc1cc(-c2cn(C)c(=O)c(C)c2C)cc(OC)c1CN1CCN(Cc2cccc3c2CCN(C(=O)/C(C#N)=C/C(C)(C)C)C3C)CC1(C)C (mixture of isomers) [Compound B159, (E/Z)-2-(5-((4-(2,6-dimethoxy-4-(1,4,5-trimethyl-6-oxo-1,6-dihydropyridin-3-yl)benzyl)-3,3-dimethylpiperazin-1-yl)methyl)-1-methyl-1,2,3,4-tetrahydroisoquinoline-2-carbonyl)-4,4-dimethylpent-2-enenitrile] | < 1.25 | 40 to 70 |
| COc1cc(-c2cn(C)c(=O)c(C)c2C)cc(OC)c1CN1CCN(Cc2ccc3c(c2)C(C)N(C(=O)/C(C#N)=C/C(C)(C)CCl)CC3)C2(CC2)C1 (single isomer, unassigned) [Compound B203, (E/Z)-5-chloro-2-(7-((7-(2,6-dimethoxy-4-(1,4,5-trimethyl-6-oxo-1,6-dihydropyridin-3-yl)benzyl)-4,7-diazaspiro[2.5]octan-4-yl)methyl)-1-methyl-1,2,3,4-tetrahydroisoquinoline-2-carbonyl)-4,4-dimethylpent-2-enenitrile] | 1.25 to 10 | > 75 |
| COc1cc(-c2cn(C)c(=O)c(C)c2C)cc(OC)c1CN1CCN(Cc2cccc3c2CCN(C(=O)/C(C#N)=C/C(C)(C)C)C3C)C2CC21 (mixture of isomers) [Compound B148, (E/Z)-2-(5-((5-(2,6-dimethoxy-4-(1,4,5-trimethyl-6-oxo-1,6-dihydropyridin-3-yl)benzyl)-2,5-diazabicyclo[4.1.0]heptan-2-yl)methyl)-1-methyl-1,2,3,4-tetrahydroisoquinoline-2-carbonyl)-4,4-dimethylpent-2-enenitrile] | 1.25 to 10 | 40 to 70 |
| COc1cc(-c2cn(C)c(=O)c(C)c2C)cc(OC)c1C(=O)N1CCC(Oc2cccc(C3CCCN3C(=O)/C(C#N)=C/C(C)(C)C)c2)CC1 (mixture of isomers) [Compound B79, (E/Z)-2-(2-(3-((1-(2,6-dimethoxy-4-(1,4,5-trimethyl-1-oxo-1,6-dihydropyridin-3-yl)benzoyl)piperidin-4-yl)oxy)phenyl)pyrrolidine-1-carbonyl)-4,4-dimethylpent-2-enenitrile] | < 1.25 | 70 to 75 |
| COc1cc(-c2cn(C)c(=O)c(C)c2C)cc(OC)c1CN1CCN(Cc2cccc3c2CCN(C(=O)/C(C#N)=C/C(C)(C)C)C3C)CC1=O (mixture of isomers) [Compound B142] | 1.25 to 10 | > 75 |
| COc1cc(-c2cn(C)c(=O)c(C)c2C)cc(OC)c1CN1C[C@H](C)N(Cc2cccc3c2CCN(C(=O)/C(C#N)=C/c2cccc(Br)n2)C3C)[C@@H](C)C1 (mixture of isomers) [Compound B110, (E/Z)-3-(6-bromopyridin-2-yl)-2-(5-(((2S,6S)-4-(2,6-dimethoxy-4-(1,4,5-trimethyl-6-oxo-1,6-dihydropyridin-3-yl)benzyl)-2,6-dimethylpiperazin-1-yl)methyl)-1-methyl-1,2,3,4-tetrahydroisoquinoline-2-carbonyl)acrylonitrile] | 25 to 1000 | 40 to 70 |
| COc1cc(-c2cn(C)c(=O)c(C)c2C)cc(OC)c1CN1CCN(Cc2cccc3c2CCN(C(=O)/C(C#N)=C/C(C)(C)CF)[C@@H]3C)C2(CC2)C1 (single isomer, unassigned) [Compound B196, (E/Z)-2-(5-((7-(2,6-dimethoxy-4-(1,4,5-trimethyl-6-oxo-1,6-dihydropyridin-3-yl)benzyl)-4,7-diazaspiro[2.5]octan-4-yl)methyl)-1-methyl-1,2,3,4-tetrahydroisoquinoline-2-carbonyl)-5-fluoro-4,4-dimethylpent-2-enenitrile] | 1.25 to 10 | 70 to 75 |
| COc1cc(-c2cn(C)c(=O)c(C)c2C)cc(OC)c1CN1CCN(Cc2cccc3c2CCN(C(=O)/C(C#N)=C/C(C)(C)C)C3C)C(C(C)C)C1 (mixture of isomers) [Compound B136, (E/Z)-2-(5-((4-(2,6-dimethoxy-4-(1,4,5-trimethyl-6-oxo-1,6-dihydropyridin-3-yl)benzyl)-2-isopropylpiperazin-1-yl)methyl)-1-methyl-1,2,3,4-tetrahydroisoquinoline-2-carbonyl)-4,4-dimethylpent-2-enenitrile] | 1.25 to 10 | > 75 |
| COc1ccc(F)c(/C=C(\C#N)C(=O)N2CCc3c(CN4CCN(Cc5c(OC)cc(-c6cn(C)c(=O)c(C)c6C)cc5OC)CC4)cccc3C2C)c1 (mixture of isomers) [Compound B93, (E/Z)-2-(5-((4-(2,6-dimethoxy-4-(1,4,5-trimethyl-6-oxo-1,6-dihydropyridin-3-yl)benzyl)piperazin-1-yl)methyl)-1-methyl-1,2,3,4-tetrahydroisoquinoline-2-carbonyl)-3-(2-fluoro-5-methoxyphenyl)acrylonitrile] | 1.25 to 10 | 40 to 70 |

The next lines start with the values.

| DC50 [nM] | Dmax [%] | Structure (SMILES) |
| --- | --- | --- |
| < 1.25 | > 75 | COc1cc(-c2cn(C)c(=O)c(C)c2C)cc(OC)c1CN1CCN(Cc2cccc3c2CCN(C(=O)/C(C#N)=C/C(C)(C)C)C3C(C)C)CC1 (mixture of isomers) [Compound C7, (E/Z)-2-(5-((4-(2,6-dimethoxy-4-(1,4,5-trimethyl-6-oxo-1,6-dihydropyridin-3-yl)benzyl)piperazin-1-yl)methyl)-1-isopropyl-1,2,3,4-tetrahydroisoquinoline-2-carbonyl)-4,4-dimethylpent-2-enenitrile] |
| 25 to 1000 | > 75 | COc1cc(-c2cn(C)c(=O)c(C)c2C)ccc1OC1CCN(Cc2cccc3c2CCN(C(=O)/C(C#N)=C/C(C)(C)C)C3C)C2(CC2)C1 (mixture of isomers) [Compound C72, (E/Z)-2-(5-((7-(2-methoxy-4-(1,4,5-trimethyl-6-oxo-1,6-dihydropyridin-3-yl)phenoxy)-4-azaspiro[2.5]octan-4-yl)methyl)-1-methyl-1,2,3,4-tetrahydroisoquinoline-2-carbonyl)-4,4-dimethylpent-2-enenitrile] |
| 25 to 1000 | 70 to 75 | COc1cc(-c2cn(C)c(=O)c(C)c2C)cc(OC)c1CN1C[C@H](C)N(Cc2cccc3c2CCN(C(=O)/C(C#N)=C/C(C)(C)C)C3C(C)C)C[C@H]1C (mixture of isomers) [Compound C12, (E/Z)-2-(5-(((2S,5R)-4-(2,6-dimethoxy-4-(1,4,5-trimethyl-6-oxo-1,6-dihydropyridin-3-yl)benzyl)-2,5-dimethylpiperazin-1-yl)methyl)-1-isopropyl-1,2,3,4-tetrahydroisoquinoline-2-carbonyl)-4,4-dimethylpent-2-enenitrile] |
| 10 to 25 | 40 to 70 | COc1cc(-c2cn(C)c(=O)c(C)c2C)cc(OC)c1CN1CCN(Cc2ccc3c(c2)[C@H](C)N(C(=O)/C(C#N)=C/C(C)(C)C)CC3)C2(CC2)C1 (single isomer, unassigned) [Compound C36, (E/Z)-2-(7-((7-(2,6-dimethoxy-4-(1,4,5-trimethyl-6-oxo-1,6-dihydropyridin-3-yl)benzyl)-4,7-diazaspiro[2.5]octan-4-yl)methyl)-1-methyl-1,2,3,4-tetrahydroisoquinoline-2-carbonyl)-4,4-dimethylpent-2-enenitrile] |
| 1.25 to 10 | 70 to 75 | COc1cc(-c2cn(C)c(=O)c(C)c2C)cc(OC)c1CN1CCN(Cc2ccc3c(c2)C(C)N(C(=O)/C(C#N)=C/C2(C)CCC(F)(F)CC2)CC3)C2(CC2)C1 (single isomer, unassigned) [Compound C38, (E/Z)-3-(4,4-difluoro-1-methylcyclohexyl)-2-(7-((7-(2,6-dimethoxy-4-(1,4,5-trimethyl-6-oxo-1,6-dihydropyridin-3-yl)benzyl)-4,7-diazaspiro[2.5]octan-4-yl)methyl)-1-methyl-1,2,3,4-tetrahydroisoquinoline-2-carbonyl)acrylonitrile] |
| 25 to 1000 | 70 to 75 | COc1cc(-c2cn(C)c(=O)c(C)c2C)ccc1OC1CCN(Cc2cccc3c2CCN(C(=O)/C(C#N)=C/C(C)(C)C)C3C(C)C)CC1 (mixture of isomers) [Compound C32, (E/Z)-2-(1-isopropyl-5-((4-(2-methoxy-4-(1,4,5-trimethyl-6-oxo-1,6-dihydropyridin-3-yl)phenoxy)piperidin-1-yl)methyl)-1,2,3,4-tetrahydroisoquinoline-2-carbonyl)-4,4-dimethylpent-2-enenitrile] |
| 10 to 25 | 40 to 70 | COc1cc(-c2cn(C)c(=O)c(C)c2C)cc(OC)c1CN(C)Cc1ccc2c(c1)[C@@H](C(C)C)N(C(=O)/C(C#N)=C/C(C)(C)C)CC2 (single isomer, unassigned) [Compound C89] |
| 1.25 to 10 | 40 to 70 | COc1cc(-c2cn(C)c(=O)c(C)c2C)cc(OC)c1CN1CCC(N(C)c2ccc3c(c2)[C@@H](C)N(C(=O)/C(C#N)=C/C(C)(C)C)CC3)CC1 (single isomer, unassigned) [Compound C65] |

Source: US20260092061A1, “COMPOUNDS FOR TARGETED PROTEIN DEGRADATION” (Amphista Therapeutics Limited, priority 2022, published 2026)
